Laboratory results as given in patent US20240108602A1, “TREATMENT OF MENTAL DISORDERS” (GH Research Ireland Limited, priority 2022, published 2024).
Read-outs that look alike come from different tables or passages of the source.

Columns and labels:
[1] = system: human hepatocytes; experiment: Metabolic stability in Hμrel human hepatocyte co-culture model
[2] = as above; settings: human, Hμrel HumanPool primary human hepatocyte co-culture
[3] = system: human hepatocytes; experiment: Metabolite identification after incubation of 5-MeO-DMT with human hepatocytes; settings: 5-MeO-DMT free base 10 μM, up to 120 minutes
Protocol: For incubations with cryopreserved hepatocytes, the 2 mM stock solution was diluted with Leibovitz L-15 medium to a concentration of 20 μM or 2 μM. An aliquot (250 μL) of the 20 μM and 2 μM test substance formulations was added to each hepatocyte incubation sample (250 μL), as appropriate, so that the final test substance concentration in the incubations was 10 μM or 1 μM, respectively, and incubations contained less than 1% (v/v) solvent.
Incubations were performed at ca. 37° C. in a shaking water bath (total incubation volume 0.5 mL). For 1 μM, incubations were terminated after 0, 5, 10, 20, 30, 60 and 120 minutes, by the addition of ice-cold acetonitrile (0.5 mL).
The samples were vortex mixed and centrifuged at ca 13,000 rpm for 10 minutes at room temperature. Following centrifugation, the protein-free supernatants were removed for analysis.
Blank control incubations were carried out with Leibovitz L-15 medium in place of the test substance. No cells control samples were performed with Leibovitz L-15 medium in place of hepatocytes. Aliquots of the blank control samples were taken at 120 minutes, while no cells control samples were taken at 0, 30 and 120 for 1 μM incubations and at 0 and 120 minutes for 10 μM incubations.
All 1 μM incubations were performed in duplicate, while all 10 μM incubations were performed in singlet. All samples were stored at −80° C. (nominal) prior to analysis.
Prior to sample analysis a 100 μL aliquot of each sample was evaporated to near dryness under a steady stream of nitrogen at room temperature, and subsequently reconstituted in 50 μL of mobile phase A (0.1% formic acid in water). Each sample (0, 30 and 120-minute, 10 μM) was analysed using accurate mass LC-MS to determine relative levels of parent compound at each time-point, and determine the profile of metabolites formed. Appropriate blank and control samples were also analysed. The 10 and 60-minute, 10 μM incubation samples were not analysed and were stored at −80° C. (nominal).
Data were interrogated for the presence of metabolites by comparison of retention times with the test substance reference standard and based on the accurate masses of potential metabolites using screening software (UNIFI version 1.9.4), and user defined search parameters. To confirm a suspected metabolite, the measured accurate mass of the peak detected in the sample used for structural elucidation had to be within 5 ppm of the theoretical mass in order to confirm the molecular formula.

[4] = Daily Infant Dosage (DID) and Relative Infant Dose (RID) calculated from breast milk concentrations; settings: 5 kg infant, three 250 ml feeds
Description: When determining the potential impact of maternal drug administration on a breastfed infant, it is standard practice to calculate the Relative Infant Dose (RID) (Bennett, P. N., and L. J. Notarianni. “Risk from drugs in breast milk: an analysis by relative dose.” Br J Clin Pharmacol 42.5 (1996): P673-4). The RID is the dosage (in μg/kg/day) the infant is exposed to by the intake of breast milk, divided by the dosage (in μg/kg/day) the mother receives.
Using estimates for daily intake of breast milk and the number of feeds as well as the measured breast milk concentrations the exposure of the infant can be determined.
For example, a published estimate for daily intake of breast milk as a function of infant weight is 150 ml/kg/day. To model the exposure, it is assumed that an infant of 5 kg is fed three times over 24 hours, receiving 250 ml breast milk each time.
Since the amount actually delivered to the patient may be lower than the indicated dose, a calculation of the RID is also carried out assuming that the actually delivered amount is only 50% of the indicated dose so that any a potential underestimation of the infant exposure is avoided.

[5] = 5-MeO-DMT, 5-MIAA and bufotenine in urine, serum and breastmilk of a lactating PPD patient, LC-MS/MS
Protocol: The second patients was lactating, and, per the clinical trial protocol, breastmilk samples were collected pre-dosing and at multiple timepoints after administration of the last dose. […] Similar analyses were carried out on patient serum and urine samples.

[6] = Plasma binding of 5-MIAA (unbound fraction); format: in vitro ADME
Protocol: Binding to human plasma protein was determined. Reported are the unbound fraction (fu) for three replicates as well as the mean unbound fraction, the standard deviation and the mean % recovery (Table 8).

[7] = female, human, breast milk, inhaled

## COc1ccc2[nH]cc(CC(=O)O)c2c1 [5-MIAA, 5-methoxyindole-3-acetic acid]
[1]; 1 μM Hepatocytes, 0 h
  relative LC/MS peak area: 100%
[1]; 1 μM Hepatocytes, 1 h
  relative LC/MS peak area: 98%
[1]; 1 μM Hepatocytes, 2 h
  relative LC/MS peak area: 100%
[1]; 1 μM Hepatocytes, 4 h
  relative LC/MS peak area: 99%
[1]; 1 μM Hepatocytes, 8 h
  relative LC/MS peak area: 95%
[1]; 1 μM Hepatocytes, 24 h
  relative LC/MS peak area: 99%
[1]; 1 μM Hepatocytes, 48 h
  relative LC/MS peak area: 88%
[1]; 1 μM Hepatocytes, 72 h
  relative LC/MS peak area: 82%
[1]; 1 μM Stromal cells, 0 h
  relative LC/MS peak area: 100%
[1]; 1 μM Stromal cells, 4 h
  relative LC/MS peak area: 103%
[1]; 1 μM Stromal cells, 8 h
  relative LC/MS peak area: 107%
[1]; 1 μM Stromal cells, 24 h
  relative LC/MS peak area: 108%
[1]; 1 μM Stromal cells, 48 h
  relative LC/MS peak area: 111%
[1]; 1 μM Stromal cells, 72 h
  relative LC/MS peak area: 135%
[1]; 10 μM Hepatocytes, 0 h
  relative LC/MS peak area: 100%
[1]; 10 μM Hepatocytes, 1 h
  relative LC/MS peak area: 97%
[1]; 10 μM Hepatocytes, 2 h
  relative LC/MS peak area: 100%
[1]; 10 μM Hepatocytes, 4 h
  relative LC/MS peak area: 103%
[1]; 10 μM Hepatocytes, 8 h
  relative LC/MS peak area: 96%
[1]; 10 μM Hepatocytes, 24 h
  relative LC/MS peak area: 96%
[1]; 10 μM Hepatocytes, 48 h
  relative LC/MS peak area: 86%
[1]; 10 μM Hepatocytes, 72 h
  relative LC/MS peak area: 75%
[1]; 10 μM Stromal cells, 0 h
  relative LC/MS peak area: 100%
[1]; 10 μM Stromal cells, 4 h
  relative LC/MS peak area: 101%
[1]; 10 μM Stromal cells, 8 h
  relative LC/MS peak area: 106%
[1]; 10 μM Stromal cells, 24 h
  relative LC/MS peak area: 97%
[1]; 10 μM Stromal cells, 48 h
  relative LC/MS peak area: 103%
[1]; 10 μM Stromal cells, 72 h
  relative LC/MS peak area: 115%
[1]; human hepatocytes
  metabolic turnover: low metabolic turnover
[1]; human, Hμrel HumanPool primary human hepatocyte co-culture
  predicted hepatic extraction ratio: 2%
[1]; in the presence of hepatocytes, 1 and 10 μM
  remaining abundance after 72 h: 75-82%
[1]; stromal cell controls
  disappearance with stromal cell controls: no disappearance
[2]
  half-life at 1 μM: 10.7 days
  hepatocyte CLint at 1 μM: 0.15 µL/min/1e6 cells
[3]
  Relative Proportion of compound after incubation of 5-MeO-DMT: about 60%
[3]; listed as 5-Methoxyindole acetic acid (5-MIAA)
  Relative Proportion of compound after incubation of 5-MeO-DMT: 61%
[4]
  Daily Infant Dosage (DID) of 5-MIAA: 0.006886 mg/day
  Daily Infant Dosage (DID) of 5-MIAA per kg: 0.001377 mg/kg/day
[5]; 2.5 hours
  urine concentration relative to serum (times higher): approx. 127 times
[5]; 120.0 hrs after last dose
  Breastmilk concentration: BLQ (BLQ: Below limit of quantification. The lower limit of quantification is 25 pg/ml for both 5-MeO-DMT and 5-MIAA in both serum and breastmilk; it is 25 pg/ml in urine for 5-MeO-DMT and 250 pg/ml for 5-MIAA in urine.)
[5]; [7]
  concentration at 2.5 h: 13.2 ng/mL
  concentration at 8.5 h: 0.359 ng/mL
[5]; female, human, urine, inhaled
  concentration at 2.5 h: 13000 ng/mL
[5]; −24.0 hrs (pre-dosing)
  Breastmilk concentration: BLQ (BLQ: Below limit of quantification. The lower limit of quantification is 25 pg/ml for both 5-MeO-DMT and 5-MIAA in both serum and breastmilk; it is 25 pg/ml in urine for 5-MeO-DMT and 250 pg/ml for 5-MIAA in urine.)
[6]; human
  recovery: 81.4%
[6]; human plasma, read-out: plasma binding (mean fraction unbound)
  fraction unbound: ~0.5
[6]; human, read-out: Mean fu
  fraction unbound: 0.502
[6]; human, read-out: unbound fraction (fu), Replicate 1
  fraction unbound: 0.499
[6]; human, read-out: unbound fraction (fu), Replicate 2
  fraction unbound: 0.462
[6]; human, read-out: unbound fraction (fu), Replicate 3
  fraction unbound: 0.544
